Measured values published in patent US7910582B2, “Cyclopropyl amines as modulators of the histamine H3 receptor” (Janssen Pharmaceutica NV, priority 2005, dated 2011).
Counter-ions that a name gives are not always drawn. Like-named read-outs stand apart in the source and are kept apart here.

Columns and labels:
Human H3 Receptor = target: T1, Human H3 Receptor (Homo sapiens, UniProt Q9Y5N1); assay: [3H]-N-Methylhistamine binding, membranes of H3 receptor-expressing SK-N-MC cells; details: 0.8 nM [3H]-N-methylhistamine, 60 min at 25° C., average of results
T1 construct: expressed in transfected cells
Method: Cells were grown to about 70% to 80% confluence and removed from the plate with trypsin and pelleted in a clinical centrifuge. The pellet was then re-suspended in 400 μL of complete media and transferred to an electroporation cuvette with a 0.4 cm gap between the electrodes (Bio-Rad #165-2088). One μg supercoiled H3 receptor cDNA was added to the cells and mixed gently. The voltage for the electroporation was set at 0.25 kV and the capacitance was set at 960 μF. After electroporation the cells were diluted with 10 mL of complete media and were plated onto four 10 cm dishes at the following ratios: 1:20, 1:10, 1:5, and 1:2. The cells were allowed to recover for 24 h before adding 600 μg G-418. Colonies that survived selection were grown and tested. SK-N-MC cells were used because they give efficient coupling for inhibition of adenylate cyclase. The clones that gave the most robust inhibition of adenylate cyclase in response to histamine were used for further study.
Cell pellets from histamine H3 receptor-expressing SK-N-MC cells were homogenized in 50 mM TrisHCl/0.5 mM EDTA. Supernatants from an 800 g spin were collected and were recentrifuged at 30,000 g for 30 min. Pellets were re-homogenized in 50 mM Tris/5 mM EDTA (pH 7.4). Membranes were incubated with 0.8 nM [^3H]-N-methylhistamine plus/minus test compounds for 60 min at 25° C. and were harvested by rapid filtration over GF/C glass fiber filters (pretreated with 0.3% polyethylenimine) followed by four washes with buffer. Filters were added to 5 mL of scintillation cocktail, and the signal was then counted on a liquid scintillation counter.

[1] = Pharmacokinetics and bioanalysis in the rat; type: in vivo, male Sprague Dawley Rats; details: for half-life (T1/2) relative to the comparative examples / volume of distribution (Vd) relative to the comparative examples: compared with isopropyl / cyclobutyl analogs
Method: One group of six male Sprague Dawley Rats (approx. 300 g body weight; three animals per time point) was used. They were group-housed, provided food and water ad libitum, and were maintained on a 12-h light and dark cycle. Animals were acclimatized for at least 7 days after receipt from the vendor prior to investigations.
For oral dosing, test compounds were formulated at 1 mg/mL in 0.5% hydroxypropyl methyl cellulose and delivered at a dose of 10 mg/kg. Citric acid salt forms (prepared as described for Example 1B) of the test compounds were used. Animals received a bolus dose of 10 mg/kg (10 mL/kg) for each compound via a 16 gauge intragastric gavage. For intravenous dosing, test compounds were formulated at 1 mg/mL in 5% dextrose in water and dosed at 1 mg/kg (1 mL/kg) with a bolus intravenous dose via a 24-gauge Terumo® Surflo® catheter in the lateral tail vein. All dosing solutions were prepared immediately prior to injection.
Blood samples (250 μL) were taken from the lateral tail vein into heparinized Natelson blood collection tubes and expelled into 1.5 mL mcirocentrifuge tubes. The blood samples were centrifuged for 5 min at 14,000 rpm in a micro-centrifuge. Plasma was retained and kept in a −20° C. freezer until analysis by LC-MS/MS.
Data analysis was performed using WinNonlin version 3.3 or 4.0.1. A non -compartmental model (#200 for Extravascular administration and #201 for i.v.) was used to determine the pharmacokinetic parameters shown in Tables 4 and 5 (NA=not applicable or not determined).

[2] = male, Sprague Dawley, iv, i.v. 1 mg/kg, citric acid salt, plasma
[3] = male, Sprague Dawley, iv, i.v. 1 mg/kg, citric acid salt, plasma, read-out: AUCINF (h-μmol/mL)
[4] = male, Sprague Dawley, oral 10 mg/kg, citric acid salt, plasma
[5] = male, Sprague Dawley, oral 10 mg/kg, citric acid salt, plasma, read-out: AUCINF (h-μmol/mL)
[6] = male, Sprague Dawley, plasma, iv, i.v. 1 mg/kg, citric acid salt, read-out: Vd
[7] = male, Sprague Dawley, iv, i.v. 1 mg/kg, citric acid salt, plasma, read-out: AUCINF
[8] = male, Sprague Dawley, oral 10 mg/kg, citric acid salt, plasma, read-out: AUCINF
[9] = oral 10 mg/kg, citric acid salt

T1 sequence (Q9Y5N1 whole entry): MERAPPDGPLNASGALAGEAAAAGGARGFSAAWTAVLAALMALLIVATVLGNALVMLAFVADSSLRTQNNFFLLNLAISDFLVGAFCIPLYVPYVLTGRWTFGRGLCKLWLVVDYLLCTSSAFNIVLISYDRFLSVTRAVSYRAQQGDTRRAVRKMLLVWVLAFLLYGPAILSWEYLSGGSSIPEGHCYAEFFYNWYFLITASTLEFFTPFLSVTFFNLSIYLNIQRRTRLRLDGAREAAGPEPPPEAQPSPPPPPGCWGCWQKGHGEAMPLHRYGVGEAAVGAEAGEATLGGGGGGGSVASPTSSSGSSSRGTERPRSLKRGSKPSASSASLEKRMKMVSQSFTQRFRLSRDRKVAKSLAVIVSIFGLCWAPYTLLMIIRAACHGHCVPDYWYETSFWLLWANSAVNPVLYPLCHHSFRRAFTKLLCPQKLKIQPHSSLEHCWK

SMILES | Ki (Human H3 Receptor; read-out: Ki) | CI ([1]; i.v. 1 mg/kg, citric acid salt) | Cmax [1, 2] | half-life [1, 2] | AUC(0-inf) [1, 3] | Cmax [1, 4] | Tmax [1, 4] | half-life [1, 4] | AUC(0-inf) [1, 5] | Vd [1, 6] | AUC(0-inf) [1, 7] | AUC(0-inf) [1, 8] | CI [1, 9] | Vd [1, 9] | half-life (T1/2) relative to the comparative examples [1] | volume of distribution (Vd) relative to the comparative examples [1] | T1/2 ([1]; i.v. 1 mg/kg, citric acid salt, plasma) | Ki (Human H3 Receptor; Ki (nM)) | Vd ([1]; i.v. 1 mg/kg, citric acid salt)
O=C(c1ccc(CN2CCOCC2)cc1)N1CCN(C2CCC2)CC1 [Comparative Example 2A, (4-Cyclobutyl-piperazin-1-yl)-(4-morpholin-4-ylmethyl-phenyl)-methanone dihydrochloride] | 1.7 nM | – | – | – | – | – | – | – | – | – | – | – | – | – | – | – | – | – | –
O=C(c1ccc(CN2CCSCC2)cc1)N1CCN(C2CCC2)CC1 [Comparative Example 5, (4-Cyclobutyl-piperazin-1-yl)-(4-thiomorpholin-4-ylmethyl-phenyl)-methanone] | 1 nM | – | – | – | – | – | – | – | – | – | – | – | – | – | – | – | – | – | –
O=C(c1ccc(CN2CCOC(CO)C2)cc1)N1CCN(C2CC2)CC1 (stereo not drawn) [Example 4, (4-Cyclopropyl-piperazin-1-yl)-[4-(2-hydroxymethyl-morpholin-4-ylmethyl)-phenyl]-methanone] | 6 nM | – | – | – | – | – | – | – | – | – | – | – | – | – | – | – | – | – | –
O=C(c1ccc(CN2CCSCC2)cc1)N1CCN(C2CC2)CC1 [Example 3, (4-Cyclopropyl-piperazin-1-yl)-(4-thiomorpholin-4-ylmethyl-phenyl) -methanone] | 2.5 nM | – | – | – | – | – | – | – | – | – | – | – | – | – | – | – | – | – | –
O=C(O)CC(O)(CC(=O)O)C(=O)O.O=C(c1ccc(CN2CCSCC2)cc1)N1CCN(C2CCC2)CC1 [Comparative Example 5B, (4-Cyclobutyl-piperazin-1-yl)-(4-thiomorpholin-4-ylmethyl-phenyl)-methanone citrate salt] | – | 154 mL/min/kg | 2680 nM | 1.33 h | 0.42 µM·h | 70 nM | 0.38 h | 0.95 h | 0.12 µM·h | 17.8 L/kg | – | – | – | – | – | – | – | – | –
O=C(c1ccc(CN2CCC(F)CC2)cc1)N1CCN(C2CC2)CC1 [Example 2, (4-Cyclopropyl-piperazin-1-yl)-[4-(4-fluoro-piperidin-1-ylmethyl)-phenyl]-methanone] | 2 nM | – | – | – | – | – | – | – | – | – | – | – | – | – | – | – | – | – | –
O=C(O)CC(O)(CC(=O)O)C(=O)O.O=C(c1ccc(CN2CCOCC2)cc1)N1CCN(C2CCC2)CC1 [Comparative Example 2B, (4-Cyclobutyl-piperazin-1-yl)-(4-morpholin-4-ylmethyl-phenyl)-methanone citrate salt] | 2 nM | 34.8 mL/min/kg | 285 ng/mL | 1.86 h | – | 683 ng/mL | 1.33 h | 2.89 h | – | 6.41 L/kg | 464 ng·h/mL | 4100 ng·h/mL | 43.2 mL/min/kg | 10.33 L/kg | – | – | – | – | –
O=C(O)CC(O)(CC(=O)O)C(=O)O.O=C(c1ccc(CN2CCSCC2)cc1)N1CCN(C2CC2)CC1 [Example 3B, (4-Cyclopropyl-piperazin-1-yl)-(4-thiomorpholin-4-ylmethyl-phenyl) -methanone citrate salt] | – | 282 mL/min/kg | 860 nM | 0.27 h | 0.18 µM·h | 190 nM | 0.25 h | 0.41 h | 0.18 µM·h | 6.48 L/kg | – | – | – | – | shorter T1/2 | lower Vd | – | – | –
CC(C)N1CCN(C(=O)c2ccc(CN3CCC(F)CC3)cc2)CC1 [Comparative Example 3, [4-(4-Fluoro-piperidin-1-ylmethyl)-phenyl]-(4-isopropyl-piperazin-1-yl)-methanone] | 2 nM | – | – | – | – | – | – | – | – | – | – | – | – | – | – | – | – | – | –
CC(C)N1CCN(C(=O)c2ccc(CN3CCOCC3)cc2)CC1.O=C(O)CC(O)(CC(=O)O)C(=O)O [Comparative Example 1B, (4-Isopropyl-piperazin-1-yl)-(4-morpholin-4-ylmethyl-phenyl) -methanone citrate salt] | – | 12.8 mL/min/kg | 4110 ng/mL | – | – | 1050 ng/mL | 1.5 h | 4.71 h | – | 3.55 L/kg | 1560 ng·h/mL | 9740 ng·h/mL | 17.1 mL/min/kg | 6.98 L/kg | – | – | 3.2 h | – | –
CC(C)N1CCN(C(=O)c2ccc(CN3CCOC(CO)C3)cc2)CC1 (stereo not drawn) [Comparative Example 6B, [4-(2-Hydroxymethyl-morpholin-4-ylmethyl)-phenyl]-(4-isopropyl-piperazin-1-yl)-methanone citratae salt] | 5 nM | 34.9 mL/min/kg | 1410 nM | 2.36 h | 1.34 µM·h | 2960 nM | 0.5 h | 4.35 h | 20 µM·h | 7.04 L/kg | – | – | – | – | – | – | – | – | –
O=C(O)CC(O)(CC(=O)O)C(=O)O.O=C(c1ccc(CN2CCOCC2)cc1)N1CCN(C2CC2)CC1 [Example 1B, (4-Cyclopropyl-piperazin-1-yl)-(4-morpholin-4-ylmethyl-phenyl) -methanone citrate salt] | – | 21.6 mL/min/kg | 935 ng/mL | 0.92 h | – | 2790 ng/mL | 0.5 h | 3.11 h | – | 1.72 L/kg | 777 ng·h/mL | 8720 ng·h/mL | 20.2 mL/min/kg | 5.45 L/kg | shorter half-life | lower volume of distribution | – | 6.5 nM | –
O=C(O)CC(O)(CC(=O)O)C(=O)O.O=C(c1ccc(CN2CCOC(CO)C2)cc1)N1CCN(C2CC2)CC1 (stereo not drawn) [Example 4B, (4-Cyclopropyl-piperazin-1-yl)-[4-(2-hydroxymethyl-morpholin-4-ylmethyl)-phenyl]-methanone citrate salt] | 23 nM | 15.2 mL/min/kg | 2920 nM | 1.47 h | 3.07 µM·h | 8730 nM | 0.83 h | 3.58 h | 33.2 µM·h | 1.91 L/kg | – | – | – | – | shorter T1/2 | lower Vd | – | – | –
O=C(O)CC(O)(CC(=O)O)C(=O)O.O=C(c1ccc(CN2CCC(F)CC2)cc1)N1CCN(C2CCC2)CC1 [Comparative Example 4B, (4-Cyclobutyl-piperazin-1-yl)-[4-(4-fluoro-piperidin-1-ylmethyl)-phenyl]-methanone citrate salt] | – | 113 mL/min/kg | 460 nM | 2.08 h | 0.41 µM·h | 480 nM | 0.67 h | 3.44 h | 1.28 µM·h | – | – | – | 1135 mL/min/kg | 397 L/kg | – | – | – | – | 20.3 L/kg
